Reference: ChEMBL document CHEMBL1151721, “Fagraldehyde, a secoiridoid isolated from Fagraea fragrans” (J Nat Prod, 2008)
In brackets after ≈: the same amount, converted by molar mass.

System: Plasmodium falciparum
Experiment: Antiplasmodial activity against chloroquine-resistant Plasmodium falciparum W2 by FACS
Type: functional, organism-based

SMILES	IC50 [µg/mL]
CC1OC(=O)C(C=O)=C2C=COC=C21 (centres undefined) [FAGRALDEHYDE]	22.4 (≈ 117 µM)
C=C[C@@H]1C2=CCOC(=O)C2=CO[C@H]1O[C@@H]1O[C@H](CO)[C@@H](O)[C@H](O)[C@H]1O [GENTIOPICROSIDE]	> 50
C=C[C@H]1[C@H](O[C@@H]2O[C@H](CO)[C@@H](O)[C@H](O)[C@H]2O)OC=C2C(=O)OCC[C@H]21 [SWEROSIDE]	> 50
C=C[C@H]1[C@H](O[C@@H]2O[C@H](CO)[C@@H](O)[C@H](O)[C@H]2O)OC=C2C(=O)OCC[C@]21O [SWERTIAMARIN]	> 50
